Measurements reported in ChEMBL document CHEMBL4651402, “Screening of ~5500 FDA-approved drugs and clinical candidates for anti-SARS-CoV-2 activity” (2021).

System: SARS-CoV-2
Experiment: microbe, parasite or virus in culture
Conditions: Severe acute respiratory syndrome coronavirus 2, Vero C1008, 48 h

Row | Compound | IC50 [µM] | IC50 (read-out: pIC50 (converted)) [µM]
1 | CC(C)c1noc(N2CCC(COc3ccc(-c4ccc(S(C)(=O)=O)cc4)nc3)CC2)n1 [GSK-1292263] | > 20 | > 20
2 | CONC(=O)c1ccccc1Nc1cc(Nc2cc(C)nn2C(C)C)ncc1Cl [GSK-2256098] | > 20 | > 20
3 | Cc1c(Cn2c(C)nc3c(C(=O)O)cc(N4CCOCC4)cc32)cccc1C(F)(F)F [GSK-2636771] | > 20 | > 20
4 | COc1ccc(/C=C2\CCCN=C2c2cccnc2)c(OC)c1 [GTS-21] | > 20 | > 20
5 | COc1ccccc1O [GUAIACOL] | > 20 | > 20
6 | COc1ccccc1OCC(O)CO (centres undefined) [GUAIFENESIN] | > 20 | > 20
7 | N=C(N)N/N=C/c1c(Cl)cccc1Cl [GUANABENZ] | > 20 | > 20
8 | N=C(N)NCCN1CCCCCCC1 [GUANETHIDINE] | > 20 | > 20
9 | N=C(N)NC(=O)Cc1c(Cl)cccc1Cl [GUANFACINE] | > 20 | > 20
10 | N=C(N)N [GUANIDINE] | > 20 | > 20
11 | N=C(NO)N/N=C/c1c(Cl)cccc1Cl [GUANOXABENZ] | > 20 | > 20
12 | N=C(N)NCC1COc2ccccc2O1 (centres undefined) [GUANOXAN] | > 20 | > 20
13 | N=C(N)NCCCOc1ccccc1 [GUANOXYFEN] | > 20 | > 20
14 | C/C=C1\C(=O)C[C@H]2[C@@H]3CCC4=CC(=O)CC[C@]4(C)[C@H]3CC[C@]12C [GUGGULSTERONE] | > 20 | > 20
15 | N#CCC1CCN(c2nc(Nc3ccc(N4CCC(O)CC4)cc3)c3c(=O)[nH]ncc3n2)CC1 [GUSACITINIB] | > 20 | > 20
16 | Cc1cc(SCc2sc(-c3ccc(C(F)(F)F)cc3)nc2C)ccc1OCC(=O)O [GW501516] | > 20 | > 20
17 | Cc1nc(-c2ccc(C(F)(F)F)cc2)sc1C(=O)NCc1ccc(OC(C)(C)C(=O)O)cc1 [GW590735] | > 20 | > 20
18 | O=C(NCC1CCOCC1)c1cnc(Nc2ccc(Cl)cc2Cl)nc1C(F)(F)F [GW842166X] | > 20 | > 20
19 | CCC(=O)NS(=O)(=O)c1ccc(NC(=O)COc2ccc(Cl)cc2C(=O)c2cc(Cl)cc(C#N)c2)c(C)c1 [GW-695634] | > 20 | > 20
20 | O=C1CN=C(c2ccccc2)c2cc(Cl)ccc2N1CC(F)(F)F [HALAZEPAM] | > 20 | > 20
21 | CC1(C)O[C@@H]2C[C@H]3[C@@H]4CCC5=CC(=O)CC[C@]5(C)[C@@]4(F)[C@@H](O)C[C@]3(C)[C@]2(C(=O)CCl)O1 [HALCINONIDE] | > 20 | > 20
22 | O=C(CC1NCCCC1O)Cn1cnc2cc(Br)c(Cl)cc2c1=O (centres undefined) [HALOFUGINONE] | > 20 | > 20
23 | CCCCCCCCCC(=O)OC1(c2ccc(Cl)cc2)CCN(CCCC(=O)c2ccc(F)cc2)CC1 [HALOPERIDOL DECANOATE] | > 20 | > 20
24 | O=C(CCCN1CCC(O)(c2ccc(Cl)cc2)CC1)c1ccc(F)cc1 [HALOPERIDOL] | > 20 | > 20
25 | Clc1cc(Cl)c(OCC#CI)cc1Cl [HALOPROGIN] | > 20 | > 20
26 | COc1ccc2c3c([nH]c2c1)C(C)=NCC3 [HARMALINE] | > 20 | > 20

Row | Compound | IC50 [µM] | IC50 (read-out: pIC50 (converted)) [µM]
27 | Cc1nccc2c1[nH]c1ccccc12 [HARMAN] | > 20 | > 20
28 | COc1ccc2c(c1)[nH]c1c(C)nccc12 [HARMINE] | > 20 | > 20
29 | CO[C@H](C)[C@](O)(C(=O)OCC1=CCN2CC[C@H](O)[C@@H]12)C(C)C [HELIOTRINE] | > 20 | > 20
30 | Oc1cc2c(cc1O)[C@@H]1c3ccc(O)c(O)c3OC[C@]1(O)C2 [HEMATOXYLIN] | > 20 | > 20
31 | C[N+]1(C)CCOC(O)(c2ccc(-c3ccc(C4(O)C[N+](C)(C)CCO4)cc3)cc2)C1 (centres undefined) [HEMICHOLINIUM-3] | > 20 | > 20
32 | CC(N)CCCC(C)(C)O (centres undefined) [HEPTAMINOL] | > 20 | > 20
33 | COc1ccc([C@@H]2CC(=O)c3c(O)cc(O)cc3O2)cc1O [HESPERETIN] | > 20 | > 20
34 | Oc1c(Cl)cc(Cl)c(Cl)c1Cc1c(O)c(Cl)cc(Cl)c1Cl [HEXACHLOROPHENE] | > 20 | > 20
35 | CC(=O)NCCCCCCNC(C)=O [HEXAMETHYLENEBISACETAMIDE] | > 20 | > 20
36 | CC[C@H](c1ccc(O)cc1)[C@@H](CC)c1ccc(O)cc1 [HEXESTROL] | > 20 | > 20
37 | CN1C(=O)NC(=O)C(C)(C2=CCCCC2)C1=O (centres undefined) [HEXOBARBITAL] | > 20 | > 20
38 | C[N+]1(C)CCN(CC(O)(c2ccccc2)C2CCCCC2)CC1 (centres undefined) [HEXOCYCLIUM] | > 20 | > 20
39 | Oc1ccc(C(O)CNCCCCCCNCC(O)c2ccc(O)c(O)c2)cc1O (centres undefined) [HEXOPRENALINE] | > 20 | > 20
40 | CC(CNC1CCCCC1)OC(=O)c1ccccc1 (centres undefined) [HEXYLCAINE] | > 20 | > 20
41 | CC(O)CC(C)(C)O (centres undefined) [HEXYLENE GLYCOL] | > 20 | > 20
42 | CCCCCCc1ccc(O)cc1O [HEXYLRESORCINOL] | > 20 | > 20
43 | O=C(O)CNC(=O)c1ccccc1 [HIPPURIC ACID] | > 20 | > 20
44 | NCCc1c[nH]cn1 [HISTAMINE] | > 20 | > 20
45 | COc1ccc(S(=O)(=O)N(C(C)=O)c2ccccc2/C=C/c2cc[n+]([O-])cc2)cc1 [HMN-214] | > 20 | > 20
46 | CC[n+]1c(-c2ccccc2)c2cc(N)ccc2c2ccc(N)cc21 [HOMIDIUM] | > 20 | > 20
47 | CC1CC(OC(=O)c2ccccc2O)CC(C)(C)C1 (centres undefined) [HOMOSALATE] | > 20 | > 20
48 | CN(C)CCc1ccc(O)cc1 [HORDENINE] | > 20 | > 20
49 | C/C=C1\[C@H]2C=C(C)C[C@]1(N)c1ccc(=O)[nH]c1C2 [HUPERZINE A] | > 20 | > 20
50 | CCN(CC)CCNc1ccc(CO)c2sc3ccccc3c(=O)c12 [HYCANTHONE] | > 20 | > 20
51 | COc1ccc2c(c1OC)C(=O)O[C@@H]2[C@H]1c2cc3c(cc2CCN1C)OCO3 [HYDRASTINE] | > 20 | > 20
52 | CN1CCc2cc3c(cc2C1O)OCO3 (centres undefined) [HYDRASTININE] | > 20 | > 20

Row | Compound | IC50 [µM] | IC50 (read-out: pIC50 (converted)) [µM]
53 | NS(=O)(=O)c1cc2c(cc1Cl)NCNS2(=O)=O [HYDROCHLOROTHIAZIDE] | > 20 | > 20
54 | COc1ccc2c3c1O[C@H]1C(=O)CC[C@H]4[C@@H](C2)N(C)CC[C@]314 [HYDROCODONE] | > 20 | > 20
55 | CC(=O)OCC(=O)[C@@]1(O)CC[C@H]2[C@@H]3CCC4=CC(=O)CC[C@]4(C)[C@H]3[C@@H](O)C[C@@]21C [HYDROCORTISONE ACETATE] | > 20 | > 20
56 | C[C@]12CCC(=O)C=C1CC[C@@H]1[C@@H]2[C@@H](O)C[C@@]2(C)[C@H]1CC[C@]2(O)C(=O)CO [HYDROCORTISONE] | > 20 | > 20
57 | COc1c2c(cc3c1OCO3)CCN(C)C2 [HYDROCOTARNINE] | > 20 | > 20
58 | NS(=O)(=O)c1cc2c(cc1C(F)(F)F)NCNS2(=O)=O [HYDROFLUMETHIAZIDE] | > 20 | > 20
59 | Oc1ccc(O)cc1 [HYDROQUINONE] | > 20 | > 20
60 | CC(N)Cc1ccc(O)cc1 (centres undefined) [HYDROXYAMPHETAMINE] | > 20 | > 20
61 | C[C@]12CCC(=O)C[C@H]1CC[C@@H]1[C@@H]2CC[C@]2(C)[C@@H](C(=O)COC(=O)CCC(=O)O)CC[C@@H]12 [HYDROXYDIONE SUCCINIC ACID] | > 20 | > 20
62 | CC(C)(O)C(=O)Nc1ccc([N+](=O)[O-])c(C(F)(F)F)c1 [HYDROXYFLUTAMIDE] | > 20 | > 20
63 | CCC(O)(COC(N)=O)c1ccccc1 (centres undefined) [HYDROXYPHENAMATE] | > 20 | > 20
64 | CC(=O)[C@@]1(O)CC[C@H]2[C@@H]3CCC4=CC(=O)CC[C@]4(C)[C@H]3CC[C@@]21C [HYDROXYPROGESTERONE] | > 20 | > 20
65 | NC(=O)NO [HYDROXYUREA] | > 20 | > 20
66 | OCCOCCN1CCN(C(c2ccccc2)c2ccc(Cl)cc2)CC1 (centres undefined) [HYDROXYZINE] | > 20 | > 20
67 | Cc1cc(=O)oc2cc(O)ccc12 [HYMECROMONE] | > 20 | > 20
68 | O=c1[nH]cnc2nc[nH]c12 [HYPOXANTHINE] | > 20 | > 20
69 | CNC(=O)[C@H]1O[C@@H](n2cnc3c(NCc4cccc(I)c4)ncnc32)[C@H](O)[C@@H]1O [IB-MECA] | > 20 | > 20
70 | Nc1nc(=O)n([C@H]2C[C@H](O)[C@@H](CO)O2)cc1I [IBACITABINE] | > 20 | > 20
71 | O=C1CC[C@H](N2Cc3c(OCc4ccc(CN5CCOCC5)cc4)cccc3C2=O)C(=O)N1 [IBERDOMIDE] | > 20 | > 20
72 | CNCCc1ccc(OC(=O)C(C)C)c(OC(=O)C(C)C)c1 [IBOPAMINE] | > 20 | > 20
73 | CCOP(=O)(Cc1ccc(C(=O)Nc2ccc(Br)cc2C#N)cc1)OCC [IBROLIPIM] | > 20 | > 20
74 | CC(C)C(=O)c1c(C(C)C)nn2ccccc12 [IBUDILAST] | > 20 | > 20
75 | CC(C)Cc1ccc(CC(=O)O)cc1 [IBUFENAC] | > 20 | > 20
76 | CC(C)Cc1ccc(C(C)C(=O)O)cc1 (centres undefined) [IBUPROFEN] | > 20 | > 20
77 | CC(C)(N)C(=O)N[C@H](COCc1ccccc1)C(=O)N1CCC2(CC1)CN(S(C)(=O)=O)c1ccccc12 [IBUTAMOREN] | > 20 | > 20
